Measurements from US20020128321A1, “IL-8 receptor antagonists” (SmithKline Beecham Corporation, priority 1996, published 2002).

molecular target: T1, recombinant IL-8 Rb, or Type II, receptor (permissive receptor) (Homo sapiens, UniProt P25025); assay: Receptor binding assay, 125I IL-8, permissive (Type II) receptor; conditions: concentration at which active
T1 construct: expressed in transfected cells; host or cells: Chinese hamster ovary cells (membrane preparation)
T1 sequence (P25025 1-360): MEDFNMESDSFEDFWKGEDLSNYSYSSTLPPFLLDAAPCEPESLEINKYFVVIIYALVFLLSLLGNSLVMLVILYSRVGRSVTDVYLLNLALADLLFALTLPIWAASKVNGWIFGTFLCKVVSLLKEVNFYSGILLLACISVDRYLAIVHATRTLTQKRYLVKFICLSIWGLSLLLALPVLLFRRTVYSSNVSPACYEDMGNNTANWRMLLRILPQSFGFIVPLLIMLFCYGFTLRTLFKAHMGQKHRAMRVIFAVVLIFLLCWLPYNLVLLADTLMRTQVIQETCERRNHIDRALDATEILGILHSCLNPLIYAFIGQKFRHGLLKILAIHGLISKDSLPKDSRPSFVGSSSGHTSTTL
Source text: [^125I] IL-8 (human recombinant) was obtained from Amersham Corp., Arlington Heights, Ill., with specific activity 2000 Ci/mmol. Gro-a was obtained from NEN-New England Nuclear. All other chemicals were of analytical grade. High levels of recombinant human IL-8 type a and b receptors were individually expressed in Chinese hamster ovary cells as described previously (Holmes, et al., Science, 1991, 253, 1278). The Chinese hamster ovary membranes were homogenized according to a previously described protocol (Haour, et al., J Biol Chem., 249 pp 2195-2205 (1974)). Except that the homogenization buffer was changed to 10 mM Tris-HCL, 1 mM MgS04, 0.5 mM EDTA (ethylene-diaminetetra-acetic acid), 1 m MPMSF (a-toluenesulphonyl fluoride), 0.5 mg/L Leupeptin, pH 7.5. Membrane protein concentration was determined using Pierce Co. micro-assay kit using bovine serum albumin as a standard. All assays were performed in a 96-well micro plate format. Each reaction mixture contained ^125I IL-8 (0.25 nM) or ^125I Gro-a and 0.5 μg/mL of IL-8Ra or 1.0 μg/mL of IL-8Rb membranes in 20 mM Bis-Trispropane and 0.4 mM Tris HCI buffers, pH 8.0, containing 1.2 mM MgSO4, 0.1 mM EDTA, 25 mM NaCl and 0.03% CHAPS. […] The filter was then dried and counted on the Betaplate liquid scintillation counter. […]

| SMILES | found to be active at (IL-8 receptor inhibition) |
| --- | --- |
| Cc1cc(Cl)ccc1NC(=O)Nc1ccccc1C(=O)O [1-(2-Carboxyphenyl)-3-(4-chloro-2-methylphenyl)urea] | about 75 μg/mL |

system: not given; assay: not given; conditions: not given

| SMILES | melting point |
| --- | --- |
| O=C(Nc1ccc([N+](=O)[O-])cc1O)Nc1ccccc1Sc1ccccc1[N+](=O)[O-] | 204.1 to 205.3 °C |
| COC(=O)c1ccc(NC(=O)Nc2ccccc2)c(O)c1 [Example 1, N-[2-Hydroxy-4-(methoxycarbonyl)phenyl]-N′-phenyl urea] | 188.4 to 188.8 °C |
| NC(=O)c1ccc(NC(=O)Nc2ccccc2)c(O)c1 [Example 3, 3-hydroxy-4-{[(phenylamino)carbonyl]amino}benzamide] | 106.8 to 107.1 °C |
| O=C(Nc1ccccc1)Nc1ccc(F)cc1O [Example 4, N-(2-hydroxy-4-fluorophenyl)-N′-phenyl urea] | 195.5 to 195.7 °C |
| O=C(Nc1ccccc1)Nc1ccccc1S [Example 5, 2-{[(phenylamino)carbonyl]amino}thiophenol] | 194.5 °C |
| COc1ccsc1NC(=O)Nc1cc([N+](=O)[O-])ccc1O [Example 11, N-(2-hydroxy-5-nitrophenyl)-N′-(3-methoxy-2-thienyl)urea] | 172.6 to 173 °C |
| O=C(Nc1cccc(C(F)(F)F)c1O)Nc1cccc(Cl)c1Cl [Example 203, N-(2-hydroxy-3-trifluoromethylphenyl)-N′-(2,3-dichlorophenyl)urea] | 204.3 to 205.2 °C |
| O=C(Nc1ccccc1-c1ccccc1)Nc1cccc(C(F)(F)F)c1O [Example 204, N-(2-hydroxy-3-trifluoromethylphenyl)-N′-(2-phenylphenyl)urea] | 136.7 to 137.3 °C |
| O=C(Nc1ccccc1Cl)Nc1cccc(C(F)(F)F)c1O [Example 213, N-(2-hydroxy-3-trifluoromethylphenyl)-N′-(2-chlorophenyl)urea] | 179.3 °C |
| O=C(NCCO)Nc1ccc([N+](=O)[O-])cc1O [Example 214, N-(2-Hydroxyethyl)-N′-(2-hydroxy-4-nitrophenyl)urea] | 168.2 to 168.8 °C |
| O=C(Nc1ccc([N+](=O)[O-])cc1O)Nc1ccccc1NS(=O)(=O)c1cccs1 [Example 216, N-[2-(2-thienylsulfonylamino)phenyl]-N′-(2-hydroxy-4-nitrophenyl)urea] | 149 to 149.6 °C |
| O=C(Nc1ccc([N+](=O)[O-])cc1O)Nc1ccccc1OCc1cccnc1 [Example 221, N-[2-(3-Pyridylmethoxy)phenyl]-N′-(2-hydroxy-4-nitrophenyl)urea] | 185.4 to 186.2 °C |
| O=C(Nc1ccc([N+](=O)[O-])cc1O)Nc1ccccc1OCc1ccncc1 [Example 222, N-[2-(4-Pyridylmethoxy)phenyl]-N′-(2-hydroxy-4-nitrophenyl)urea] | 189.3 to 189.7 °C |
| COC(=O)Nc1ccccc1NC(=O)Nc1ccc([N+](=O)[O-])cc1O [Example 223, N-[2-(Methoxycarbonylamino)phenyl]-N′-(2-hydroxy-4nitrophenyl)urea] | 199.3 to 199.6 °C |
| N#Cc1ccc(NC(=O)Nc2ccccc2NCc2ccccc2)c(O)c1 [Example 232, N-(2-Hydroxy-4-cyanophenyl)-N′-(2-benzylaminophenyl)urea] | 108.8 to 109.4 °C |
| NC(=O)N(c1ccc([N+](=O)[O-])cc1O)c1ccccc1OCc1ccccn1 [Example 233, N′-[2-(2-Pyridylmethoxy)phenyl]-N′-(2-Hydroxy-4-nitrophenyl)urea] | 193.5 to 194 °C |
| O=C(Nc1ccc([N+](=O)[O-])cc1O)Nc1ccccc1NC(=O)c1ccccc1 [Example 236, N-[2-(Benzoylamino)phenyl]-N′-(2-hydroxy-4-nitrophenyl)urea] | 188.7 to 189.3 °C |
